Assay results: patent US9642831B2, “Substituted chromanes and method of use” (AbbVie S.á.r.l., priority 2014, dated 2017)

Tests used:
F508delCFTR [1] = target: T1, F508delCFTR (Homo sapiens, UniProt P13569, DEL508-508); experiment: Cell Surface Expression-Horse Radish Peroxidase (CSE-HRP) assay; format: cell-based; parameters: expressed in transfected cells; host or cells: CFBE41o- human lung derived epithelial cell line, doxycycline-inducible; conditions: CFBE4lo-F508delCFTR-HRP cells; for EC50: 18-24 hours at 33° C., 8-point curve, highest concentration 20 μM, luminescence readout; for Emax: maximum % activity at any tested concentration, normalized to on-plate positive control (3 μM Example 1)
T1 sequence (P13569 with tags, fused parts or gaps DEL508-508): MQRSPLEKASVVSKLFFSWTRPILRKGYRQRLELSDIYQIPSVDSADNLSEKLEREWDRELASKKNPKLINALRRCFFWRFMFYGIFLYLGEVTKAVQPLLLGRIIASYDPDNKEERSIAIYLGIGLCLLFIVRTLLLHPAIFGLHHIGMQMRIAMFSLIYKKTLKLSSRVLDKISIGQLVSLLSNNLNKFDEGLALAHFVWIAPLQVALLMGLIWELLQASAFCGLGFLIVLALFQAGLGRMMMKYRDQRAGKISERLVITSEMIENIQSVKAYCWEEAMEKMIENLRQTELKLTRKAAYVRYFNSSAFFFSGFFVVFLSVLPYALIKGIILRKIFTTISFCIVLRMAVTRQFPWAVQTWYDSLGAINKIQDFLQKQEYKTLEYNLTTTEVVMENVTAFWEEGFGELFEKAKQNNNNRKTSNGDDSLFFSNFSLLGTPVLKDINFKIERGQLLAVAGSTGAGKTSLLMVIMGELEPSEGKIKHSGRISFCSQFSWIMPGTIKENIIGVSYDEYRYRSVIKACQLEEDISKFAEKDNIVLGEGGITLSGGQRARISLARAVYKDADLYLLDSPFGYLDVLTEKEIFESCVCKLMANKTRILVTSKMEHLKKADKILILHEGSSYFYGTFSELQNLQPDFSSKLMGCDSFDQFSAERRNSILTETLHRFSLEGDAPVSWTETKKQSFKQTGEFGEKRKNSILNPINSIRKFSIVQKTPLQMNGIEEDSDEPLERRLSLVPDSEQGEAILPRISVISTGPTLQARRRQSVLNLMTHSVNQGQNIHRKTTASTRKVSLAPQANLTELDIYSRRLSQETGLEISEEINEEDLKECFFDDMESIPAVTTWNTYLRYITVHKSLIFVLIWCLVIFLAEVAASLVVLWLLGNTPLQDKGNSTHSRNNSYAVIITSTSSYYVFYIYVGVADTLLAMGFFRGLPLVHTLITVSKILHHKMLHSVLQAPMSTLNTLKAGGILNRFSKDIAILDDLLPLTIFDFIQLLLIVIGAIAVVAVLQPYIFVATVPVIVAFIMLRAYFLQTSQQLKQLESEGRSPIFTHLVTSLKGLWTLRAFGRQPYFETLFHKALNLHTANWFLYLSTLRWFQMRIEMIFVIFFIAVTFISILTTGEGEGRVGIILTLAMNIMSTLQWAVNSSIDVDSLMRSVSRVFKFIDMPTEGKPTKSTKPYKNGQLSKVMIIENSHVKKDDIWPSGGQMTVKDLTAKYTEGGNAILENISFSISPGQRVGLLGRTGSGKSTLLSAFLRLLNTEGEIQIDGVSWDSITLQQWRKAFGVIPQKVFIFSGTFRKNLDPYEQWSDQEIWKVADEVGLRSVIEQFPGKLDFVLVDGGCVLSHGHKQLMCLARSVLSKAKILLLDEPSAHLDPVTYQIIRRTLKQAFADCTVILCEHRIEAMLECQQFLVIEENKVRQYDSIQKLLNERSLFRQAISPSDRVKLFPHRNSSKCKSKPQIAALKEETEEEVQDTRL
Summary of the method: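 Following 18-24 h compound exposure at 33° C. Expression was doxycycline-induced beforehand. % activity versus DMSO and a 3 μM corrector control gave maximum activity and EC50 from a variable-Hill sigmoidal fit.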

CYP3A4 = CYP3A4 induction in primary human hepatocytes (mRNA, RT-PCR); conditions: test compounds 10 μM, 48 hours, % of response of positive control (Rifampin 10 μM)
Protocol: Cryopreserved primary human hepatocytes were thawed and cultured overnight prior to treatment. […] Following the 48 hour treatment, hepatocytes were harvested for RNA isolation and reverse transcription, followed by CYP3A4 mRNA quantitation using RT-PCR (real time reverse transcript polymerase chain reaction).
Fold Induction=Fold of Treated/Fold of Vehicle Control % positive control=(Fold Induction of Treated−1)/(Fold Induction of Prototypical Inducer−1)

F508delCFTR [2] = target: T1, F508delCFTR; experiment: Transepithelial Clamp Circuit (TECC-24) conductance assay on primary human bronchial epithelial cells (hBE-TECC); format: cell-based; parameters: cells isolated from CF patients with the homozygous mutation; endogenous in cells; host or cells: primary human bronchial epithelial (hBE) cells from F508del/F508del CF patients; conditions: for EC50: primary hBE cells from F508del/F508delCFTR patients, corrector 18-24 hours at 37° C., equivalent short circuit current (Ieq), with control potentiator 1 μM; for Emax: relative to positive control (3 μM Example 1 coupled with control potentiator = 100%), primary hBE F508del/F508del cells, read-out: Maximum % activity (%)
Source text: Transepithelial Clamp Circuit on Human Bronchial Epithelial Cells Conductance Assay:
A cell based assay using the primary human bronchial epithelial cells (hBE) was used as a secondary assay to test novel F508delCFTR correctors for their activity on primary hBE cells with F508del/F508del CFTR mutation. The assay used a TECC-24 (Transepithelial Clamp Circuit for 24 wells) instrument that measures the functionality of the mutated channel by measuring the equivalent short circuit current (Ieq) generated by the polarized epithelial cells. The instrument works by measuring the transepithelial potential difference (Vt) and transepithelial resistance (Rt) in an open circuit format, and the Ieq is calculated by using Ohms law (Ieq=Vt/Rt). The assay was run in a 24-well format and all 24-wells were measured at the same time point giving a higher throughput for this assay.
Primary human bronchial epithelial (hBE) cells from F508del/F508delCFTR patients were expanded from 1×10^6 to 250×10^6 cells (Neuberger T, Burton B, Clark H and VanGoor F; Cystic Fibrosis, Methods in Mole Biol 741; eds. Amaral M D and Kunzelmann K, 2011). For this purpose, cells isolated from CF patients with the homozygous mutation were seeded onto 24 well Corning (Cat #3378) filter plates that were coated with 3T3 conditioned media and grown at an air-liquid interface for 35 days using an Ultroser® G supplemented differentiation media. Apical surface mucus was removed 72 hours before the experiment using 3 mM dithiothreitol (DTT) in phosphate buffered saline (PBS). The apical surface was washed again 24 hours before the experiment using PBS. The cells were incubated with the desired dose response of the corrector compounds 18-24 hours at 37° C., 5% CO2. The corrector compounds are only added on the basolateral side of the epithelial cells.
On the day of measuring the corrector activity on the TECC, the cells were switched into a bicarbonate and serum free F-12 Coon's medium and allowed to equilibrate for 90 minutes in a CO2 free incubator. At the time of measurement, the apical and basolateral sides of the filter were bathed with the F-12 Coon's modification media (with 20 mM 4-(2-hydroxyethyl)-1-piperazineethanesulfonic acid (HEPES), pH 7.4 (using 1 M tris(hydroxymethyl)aminormethane (Tris)), and the measurements were made at 36.5° C. Transepithelial voltage (Vt) and transepithelial resistance (Rt) were measured using a 24 channel transepithelial current clamp (TECC-24). Current responses to the sequential addition of benzamil (apical 6 μM addition; for inhibiting epithelial ENaC channel), forskolin (apical and basolateral 10 μM addition; for activating the CFTR channel), control potentiator (N-(3-carbamoyl-5,5,7,7-tetramethyl-4,7-dihydro-5H-thieno[2,3-c]pyran-2-yl)-1H-pyrazole-5-carboxamide; apical and basolateral 1 μM addition; for potentiating the CFTR channel) and bumetanide (basolateral 20 μM addition; for inhibiting the Na:2Cl:K co-transporter, an indirect measure of inhibiting the Cl-secretion driven by CFTR channel) were measured.
All plates contained negative controls (dimethyl sulfoxide, DMSO) which coupled with the control potentiator (N-(3-carbamoyl-5,5,7,7-tetramethyl-4,7-dihydro-5H-thieno[2,3-c]pyran-2-yl)-1H-pyrazole-5-carboxamide) sets the null response and positive controls (3 μM of 3-[(2R,4R)-4-({[1-(2,2-difluoro-1,3-benzodioxol-5-yl)cyclopropyl]carbonyl}amino)-7-methoxy-3,4-dihydro-2H-chromen-2-yl]benzoic acid) coupled with the control potentiator sets the 100% response to measure the correction of the mutated CFTR channel. The maximum percent activity is reported relative to the positive control value.
The % activity measured at each of the 6 test concentrations of the test compound was normalized to the on-plate positive control using the following formula: % activity=[(test compound response−DMSO response)/(positive control response−DMSO response)]*100 […]

SMILES | EC50 (F508delCFTR [1]) [nM] | Emax (F508delCFTR [1]) [%] | CYP3A4 Hepatocytes mRNA % of positive control (CYP3A4) [%] | EC50 (F508delCFTR [2]) [nM] | Emax (F508delCFTR [2]) [%]
COc1ccc2c(c1)O[C@@H](c1ccc(C(=O)O)cc1F)C[C@H]2NC(=O)C1(c2ccc3c(c2)OC(F)(F)O3)CC1 [Example 146, 4-[(2R,4R)-4-({[1-(2,2-difluoro-1,3-benzodioxol-5-yl)cyclopropyl]carbonyl}amino)-7-methoxy-3,4-dihydro-2H-chromen-2-yl]-3-fluorobenzoic acid] | 30 | 129 | 11.6 | 4 | 98
O=C(O)c1cccc([C@H]2C[C@@H](NC(=O)C3(c4ccc5c(c4)OC(F)(F)O5)CC3)c3ccc(C(F)(F)F)cc3O2)c1 [Example 108, 3-[(2R,4R)-4-({[1-(2,2-difluoro-1,3-benzodioxol-5-yl)cyclopropyl]carbonyl}amino)-7-(trifluoromethyl)-3,4-dihydro-2H-chromen-2-yl]benzoic acid] | 340 | 115 | 39.6 | 86 | 96
O=C(O)c1ccc([C@H]2C[C@@H](NC(=O)C3(c4ccc5c(c4)OC(F)(F)O5)CC3)c3ccc(OC(F)F)cc3O2)cc1 [Example 122, 4-[(2R,4R)-4-({[1-(2,2-difluoro-1,3-benzodioxol-5-yl)cyclopropyl]carbonyl}amino)-7-(difluoromethoxy)-3,4-dihydro-2H-chromen-2-yl]benzoic acid] | 26 | 122 | 10.6 | 4 | 87
COc1ccc2c(n1)O[C@@H](c1cccc(C(=O)O)c1)C[C@H]2NC(=O)C1(c2ccc3c(c2)OC(F)(F)O3)CC1 (racemic) [Example 28, rac-3-[(2R,4R)-4-({[1-(2,2-difluoro-1,3-benzodioxol-5-yl)cyclopropyl]carbonyl}amino)-7-methoxy-3,4-dihydro-2H-pyrano[2,3-b]pyridin-2-yl]benzoic acid] | 3240 | 98 | 9.41 | 3400 | 51
COc1ccc2c(c1)O[C@@H](c1cccc(C(=O)O)c1)C[C@H]2NC(=O)C1(c2ccc3c(c2)OC(F)(F)O3)CC1 [Example 1, 3-[(2R,4R)-4-({[1-(2,2-difluoro-1,3-benzodioxol-5-yl)cyclopropyl]carbonyl}amino)-7-methoxy-3,4-dihydro-2H-chromen-2-yl]benzoic acid] | 280 | 102 | 14 | 290 | 95
COc1ccc2c(c1)O[C@@H](c1ccc(C(=O)O)cc1)C[C@H]2NC(=O)C1(c2ccc3c(c2)OC(F)(F)O3)CC1 [Example 111, 4-[(2R,4R)-4-({[1-(2,2-difluoro-1,3-benzodioxol-5-yl)cyclopropyl]carbonyl}amino)-7-methoxy-3,4-dihydro-2H-chromen-2-yl]benzoic acid] | 44 | 113 | −0.105 | 5 | 90
Cc1ccc2c(c1)[C@H](NC(=O)C1(c3ccc4c(c3)OC(F)(F)O4)CC1)C[C@H](c1cccc(C(=O)O)c1)O2 [Example 14, 3-[(2R,4R)-4-({[1-(2,2-difluoro-1,3-benzodioxol-5-yl)cyclopropyl]carbonyl}amino)-6-methyl-3,4-dihydro-2H-chromen-2-yl]benzoic acid] | 850 | 78 | 3.54 |  | 
O=C(O)c1cccc([C@H]2C[C@@H](NC(=O)C3(c4ccc5c(c4)OC(F)(F)O5)CC3)c3ccccc3O2)c1 [Example 9, 3-[(2R,4R)-4-({[1-(2,2-difluoro-1,3-benzodioxol-5-yl)cyclopropyl]carbonyl}amino)-3,4-dihydro-2H-chromen-2-yl]benzoic acid] | 420 | 84 | 16.1 | 160 | 92
COc1ccc2c(c1)[C@H](NC(=O)C1(c3ccc4c(c3)OC(F)(F)O4)CC1)C[C@H](c1cccc(C(=O)O)c1)O2 [Example 19, 3-[(2R,4R)-4-({[1-(2,2-difluoro-1,3-benzodioxol-5-yl)cyclopropyl]carbonyl}amino)-6-methoxy-3,4-dihydro-2H-chromen-2-yl]benzoic acid] | 630 | 103 | 9.38 | 210 | 111
O=C(O)c1cccc([C@H]2C[C@@H](NC(=O)C3(c4ccc5c(c4)OC(F)(F)O5)CC3)c3ccc(F)cc3O2)c1 [Example 38, 3-[(2R,4R)-4-({[1-(2,2-difluoro-1,3-benzodioxol-5-yl)cyclopropyl]carbonyl}amino)-7-fluoro-3,4-dihydro-2H-chromen-2-yl]benzoic acid] |  |  | 40.2 |  | 
COc1ccc2c(c1)O[C@@H](C13CC(C(=O)O)(C1)C3)C[C@H]2NC(=O)C1(c2ccc3c(c2)OC(F)(F)O3)CC1 (racemic) [Example 148, rac-3-[(2R,4R)-4-({[1-(2,2-difluoro-1,3-benzodioxol-5-yl)cyclopropyl]carbonyl}amino)-7-methoxy-3,4-dihydro-2H-chromen-2-yl]bicyclo[1.1.1]pentane-1-carboxylic acid] | 2120 | 77 |  | 1100 | 44
O=C(O)C1CCCC([C@H]2C[C@@H](NC(=O)C3(c4ccc5c(c4)OC(F)(F)O5)CC3)c3ccc(OC(F)F)cc3O2)C1 (stereo partly drawn) [Example 26, 3-[(2R,4R)-4-({[1-(2,2-difluoro-1,3-benzodioxol-5-yl)cyclopropyl]carbonyl}amino)-7-(difluoromethoxy)-3,4-dihydro-2H-chromen-2-yl]cyclohexanecarboxylic acid] | 340 | 93 |  | 110 | 88
O=C(O)c1cccc([C@H]2C[C@@H](NC(=O)C3(c4ccc5c(c4)OC(F)(F)O5)CC3)c3ccc(OC(F)F)cc3O2)c1 [Example 27, 3-[(2R,4R)-4-({[1-(2,2-difluoro-1,3-benzodioxol-5-yl)cyclopropyl]carbonyl}amino)-7-(difluoromethoxy)-3,4-dihydro-2H-chromen-2-yl]benzoic acid] | 120 | 113 |  | 75 | 117
COc1ccc2c(c1)O[C@@H](c1ccc(OC)c(OC)c1)C[C@H]2NC(=O)C1(c2ccc3c(c2)OC(F)(F)O3)CC1 [Example 3, 1-(2,2-difluoro-1,3-benzodioxol-5-yl)-N-[(2R,4R)-2-(3,4-dimethoxyphenyl)-7-methoxy-3,4-dihydro-2H-chromen-4-yl]cyclopropanecarboxamide] | 390 | 135 | 49.3 |  | 
